Laboratory results published in patent US8293231B2, “Methods and compositions for treating ischemia” (Blue Blood Biotech Corp., priority 2005, dated 2012).

Assays:
[1] = tested on: MMP-1, MMP-2, MMP-3, and MMP-9 in HUVEC conditioned medium; assay: Gelatin and casein zymographies; format: cell-based, human; conditions: 10 mM EDTA in incubation buffer
Protocol: (§1) HUVECs were seeded at 80% confluence on 100-mm dishes in M199 medium. After 24 h, cells were rinsed with serum-free M199 twice and incubated in serum-free M199 with various concentrations of TMD23, VEGF (10 ng/mL), or PMA (70 ng/mL) for 12 h. The conditioned medium containing […] secreted proteins was analyzed by gelatin- and casein-based zymographies. The digested area appeared clear on a blue background, indicating the location of matrix metalloproteinase (MMP) activity. To further verify MMP caseinolytic activity, the casein-containing gel was incubated with incubation buffer containing 10 mM EDTA, an inhibitor of MMPs, to observe disappearance of the clear band. Plasminogen activator inhibitor (PAI) activity was measured by titrating samples with increasing amounts of tissue-type plasminogen activator (t-PA) (Boehringer Ingelheim) into a fixed volume of endothelial-cell-conditioned media.
as §1, with “zymographies. Lee O H, et al., Identification of angiogenic properties of insulin-like growth factor II in in vitro angiogenesis models. Brit J. Cancer. 2000; 82:385-391.” for “zymographies.”, “media. Shi G Y., et al., Plasmin and the regulation of tissue-type plasminogen activator biosynthesis in human endothelial cells. […]” for “media.”

[2] = tested on: Matrigel plugs in FVB mice; assay: Murine angiogenesis assay (Matrigel plug); format: in vivo; conditions: for Appearance of Matrigel plugs, with heparin: day 4, plus heparin (30 U), TMD23 10, 100, or 1,000 ng, bFGF 250 ng, VEGF 50 ng; for Magnitude of angiogenic reaction with heparin versus without: gels supplemented with both angiogenic factor and heparin
Protocol: To assess angiogenic effects in vivo, growth-factor-reduced liquid Matrigel (0.5 mL) containing heparin (60 U/mL) and various concentrations of TMD23, bFGF or VEGF was subcutaneously injected into FVB mice near the abdominal midline. Matrigel with PBS plus heparin served as the negative control, with bFGF and VEGF plus heparin as the positive control. Four days after injection, mice were sacrificed and Matrigel plugs were surgically removed. For macroscopic analysis of angiogenesis, hemoglobin content in Matrigel was measured using Drabkin reagent 525 (Sigma-Aldrich). For histological analysis, rat anti-mouse CD31 (PECAM-1, platelet endothelial cell adhesion molecule-1) antibody (Pharmingen) was used. The same specimens were used for hematoxylin and eosin (H&E) staining.

[3] = tested on: Matrigel plugs in FVB mice; assay: Murine angiogenesis assay (Matrigel plug); format: in vivo
[4] = tested on: human melanoma A2058 cells in Matrigel; assay: Effect of TMD23 on tumor neoangiogenesis; format: in vivo, athymic nude mice; conditions: 18 days
Protocol: To assess TMD23 effects on tumor neoangiogenesis, 1×10^6 human melanoma A2058 cells (ATCC® CRL-11147) were mixed with Matrigel (0.5 mL) containing heparin (60 U/mL) and various concentrations of TMD23 and subcutaneously injected into athymic nude mice. Matrigel plugs were harvested after 18 days and frozen in liquid nitrogen. Blood vessels were detected by immunohistochemistry using anti-CD31 antibody as described above. Microvessel density (MVD) was calculated by counting six highly vascularized fields in each section (200× magnification; MetaMorph software).

HUVECs [5] = assay: In vitro Matrigel angiogenesis assay (tube formation); format: cell-based, human; conditions: for Effect on the stimulatory effect of TMD23 on HUVEC tube formation: IgG 10 μg/mL, inhibitors 10 μM
Protocol: (§2) Growth-factor-reduced Matrigel (BD Biosciences) was thawed at 4° C. A total of 200 μL Matrigel was added to wells of a 48-well plate and polymerized 30 min at 37° C. Two hundred μL cell suspension containing various concentrations of VEGF, TMD23, or TMD23 in the presence of polyclonal rabbit anti-TMD23 antibody (10 μg/mL) or various signaling pathway inhibitors were plated onto Matrigel-coated wells at a density of 2.4×10^4 cells/well in M199 containing 10% FBS for 24 h at 37° C. in a 5% CO2 humidified atmosphere. Each concentration was tested in triplicate in the same plate, with wells photographed using a Leica camera (40× magnification). Tube length was quantified by measuring tubes in five randomly chosen fields from each well using MetaMorph software. Experiments were repeated at least three times.
as §2, with “5° k” for “5%”

[6] = tested on: human umbilical vein endothelial cells (HUVECs); assay: Cell proliferation assay (BrdU incorporation); format: cell-based; conditions: BrdU incorporation, FIG. 2A
Protocol: (§3) To evaluate the effect of TMD proteins on DNA synthesis in human umbilical vein endothelial cells (HUVECs), we performed a 5-bromo-2′-deoxyuridine (BrdU) incorporation assay with a commercial quantification kit (Roche Diagnostic GmbH) and manufacturer's protocol. Mitogenic effects induced by TMD proteins were also determined in the presence of polyclonal rabbit anti-TMD23 antibody (prepared by GlycoNex, Inc., Taiwan) that was purified by protein G-Sepharose column (Amersham Pharmacia Biotech AB).
as §3, with “(HUVECs),” for “(HUVECs), we performed”, “assay were performed” for “assay”

[7] = tested on: PAI activity in conditioned media of HUVECs; assay: Plasminogen activator inhibitor (PAI) activity assay; format: cell-based, human; conditions: 12 h; 100 or 1000 ng/mL TMD23, 70 ng/mL PMA, 10 ng/mL VEGF
Protocol: as §1
as §1, with “zymographies. Lee O H, et al., Identification of angiogenic properties of insulin-like growth factor II in in vitro angiogenesis models. Brit J. Cancer. 2000; 82:385-391.” for “zymographies.”, “media. Shi G Y., et al., Plasmin and the regulation of tissue-type plasminogen activator biosynthesis in human endothelial cells. […]” for “media.”

HUVECs [8] = assay: Chemotaxis assay (Transwell); format: cell-based, human; conditions: inhibitor or antibody present with TMD23
Protocol: (§4) The chemotactic motility of HUVECs was assayed using Transwell (Costar) with 6.5-mm diameter polycarbonate filters (8-μm pore size). The lower filter surface was coated with 10 μg gelatin (Sigma-Aldrich). Various concentrations of TMD23 in the absence or presence of 10 μg/mL polyclonal rabbit anti-TMD23 antibody or 10 ng/mL vascular endothelial growth factor (VEGF) (R & D Systems, Inc.) in M199 were placed in the lower wells. One hundred mL cell suspension containing 1×10^5 cells was loaded into each of upper well. The chamber was incubated at 37° C. for 4 h. Cells were fixed with methanol and stained with 4′,6′-diamidino-2-phenylindole (DAPI). Chemotaxis was quantified with optical microscopy (Leica) at 100× magnification using MetaMorph imaging software (Universal Imaging Corporation) by counting the cells that migrated to the filter's lower side. Five random fields in each well were counted. Each sample was assayed in triplicate, and assays were repeated three times. To determine the role of extracellular signal-regulated kinase 1/2 (ERK1/2), p38 mitogen-activated protein kinase (MAPK), and phosphatidylinositol 3-kinase (PI3 kinase)-protein kinase B/Akt (Akt) in TMD23-mediated cell migration, assays were performed in the presence of U0126, a MAPK/ERK kinase (MEK) inhibitor, SB 203580, a p38 MAPK inhibitor, and LY 294002, a PI3 kinase inhibitor. Cell viability as determined by trypan blue staining was not altered by treatment. 00126 was purchased from Promega, with SB 203580 and LY 294002 from Calbiochem.
as §4, with “hundred μL” for “hundred mL”, “MAPK/ERK kinase-(MEK)” for “MAPK/ERK kinase (MEK)”, “treatment. U0126” for “treatment. 00126”

O=C(O)CN(CCN(CC(=O)O)CC(=O)O)CC(=O)O [EDTA, reference compound]
Effect on the caseinolytic MMP-3 band [1]: blocked specifically

basic fibroblast growth factor [bFGF, reference compound]
Appearance of Matrigel plugs, with heparin [2]: bright red | Magnitude of angiogenic reaction with heparin versus without [2]: considerably greater | Appearance of Matrigel plugs, without heparin [3]: pale | Blood vessels in Matrigel plugs (CD31 staining) [4]: significantly more blood vessels | Tumor size developed by Matrigel plugs containing A2058 cells ([4]; compared with A2058 cells alone): bigger

COC(=O)[C@@H](N)CCCNC(=N)N[N+](=O)[O-] [L-NAME, N^G-nitro-L-arginine methyl ester]
Effect on the stimulatory effect of TMD23 on HUVEC tube formation (HUVECs [5]): blocked

TMD2: Recombinant human thrombomodulin fragment, amino acids Ala242-Cys480 of SEQ ID NO: 2, containing six EGF-like structures (D2)
DNA synthesis in HUVECs [6]: stimulated DNA synthesis

vascular endothelial growth factor [VEGF, reference compound]
Appearance of Matrigel plugs, with heparin [2]: bright red | Magnitude of angiogenic reaction with heparin versus without [2]: considerably greater | Hemoglobin content of recovered Matrigel plugs ([2]; plus heparin, compared with controls): significantly increased | Appearance of Matrigel plugs, without heparin [3]: pale | HUVEC tube formation on Matrigel (HUVECs [5]; 24 h, VEGF 10 ng/mL, TMD23 5 to 250 ng/mL): formed elongated capillary-like structures, with complete networks | PAI activity in conditioned media of HUVECs [7]: decreased significantly

N#CC(=C(/N)Sc1ccccc1N)/C(C#N)=C(\N)Sc1ccccc1N [U0126, reference compound]
Effect on the stimulatory effect of TMD23 on HUVEC tube formation (HUVECs [5]): blocked | Effect on the stimulatory effect of TMD23 on HUVEC migration (HUVECs [8]): blocked

C[S+]([O-])c1ccc(-c2nc(-c3ccncc3)c(-c3ccc(F)cc3)[nH]2)cc1 (stereo not shown) [SB 203580, reference compound]
Effect on the stimulatory effect of TMD23 on HUVEC tube formation (HUVECs [5]): blocked | Effect on the stimulatory effect of TMD23 on HUVEC migration (HUVECs [8]): blocked

CCCCCCCCCCCCCC(=O)O[C@@H]1[C@@H](C)[C@@]2(O)[C@@H](C=C(CO)C[C@]3(O)C(=O)C(C)=C[C@@H]23)[C@@H]2C(C)(C)[C@]12OC(C)=O [PMA]
PAI activity in conditioned media of HUVECs [7]: decreased significantly
